“Also recorded” adds a separate entry of the source. Bridges are numbered along the chain shown (N, C = ends). Where no end group is shown, it is not given here.
Columns and labels:
[1] = system: mouse bone marrow macrophages (BMM); details: stimulation of mouse BMM with LPS; cited from earlier work
[2] = system: blood thromboxane B2 (TXB2) level; details: LPS administration in mice; cited from earlier work
[3] = system: collagenase OA mouse model (right knee joint); assay: Therapeutic effect of CNP infusion on collagenase osteoarthritic mouse model; assay type: in vivo; details: for AUC of knee joint swelling (difference between right and left knee joint breadth) vs solvent control: 1.5% collagenase, 28 days; for swelling of the right knee joint vs solvent control: 6 days following 1.5% collagenase
Description: (§1) An osmotic pump (2004 model, Durect) containing the solutions below was transplanted subcutaneously in the back of a 9-week-old male C57BL/6 J strain mouse. • Solvent: Distilled water containing 5% dextrose (Junsei Chemical Co., Ltd., Japan), 10% mannose (Nacalai Tesque Inc., Japan) and 5 mmol/L hydrochloric acid (Wako Pure Chemical Industries, Japan). • 10 μg/mL solution (60 ng/day) of CNP-22 (Calbiochem Novabiochem). • 100 μg/mL solution (600 ng/day) of CNP-22 (Calbiochem Novabiochem.).
Six days after transplantation, 6 μL of 1.5% type II collagenase (Sigma) solution was injected into the right knee joint, the breadth of both the right and left knee joints was measured on time with a slide caliper (Mitutoyo Corp., Japan) for 28 days after injection, and the difference between the right and left knee joints was calculated. This difference represented the swelling of knee joints, and the AUC was compared between the solvent control and CNP groups by the Student's t-test (SAS ver. 6.12). […] Hematoxylin-eosin-stained and safranin O-stained samples were prepared according to the method as described in Example 5, and analyzed histopathologically.

[4] = system: surgical OA mouse model (right knee joint); assay: Therapeutic effect of CNP infusion on surgical OA mouse model; assay type: in vivo; details: 4, 8 and 11 days postoperatively
Description: as §1, with “mouse (CLEA Japan, Japan).” for “mouse.”, “[…]” for “μg/mL”, “Novabiochem).” for “Novabiochem.).”
On the following day of transplantation, the mouse was anesthetized with ether and subjected to the surgical procedures of anterocrucial ligament excision, medial collateral ligament excision and medial meniscus total resection in the right knee joint to induce osteoarthritis. The breadth of both the right and left knee joints was measured on time with a slide caliper (Mitutoyo Corp.) for 11 days after administration, and the difference between the right and left knee joints was calculated. This difference represented the swelling of knee joints, and the AUC was compared between the solvent control and CNP groups by the Student's t-test (SAS Preclinical Package, SAS Institute Japan, Japan).

[5] = system: collagenase OA mouse model (right knee joint); assay: Combined effect of NSAID and CNP in collagenase OA model; assay type: in vivo; details: 7 days
Description: An osmotic […]) containing the solutions below was transplanted subcutaneously in the back of a 9-week-old male C57BL/6 J strain mouse. • Solvent: Distilled water containing 5% dextrose (Junsei Chemical Co., Ltd., Japan), 10% mannose (Nacalai Tesque Inc., Japan) and 5 mmol/L hydrochloric acid (Wako Pure Chemical Industries, Japan). • 1 μg/mL solution (6 ng/day) of CNP-22 (Calbiochem Novabiochem). In addition, to examine the effect of the NSAID indomethacin (Sigma) when used alone and in combination with the CNP, an indomethacin suspension in 0.2% carboxymethyl cellulose (Nacalai Tesque Inc., Japan) was administered orally in a forced manner at 1 mg/kg once a day for 4 successive days from the date of pump transplantation described above. On the date of pump transplantation and the following day, 6 μL of 0.15% type II collagenase (Sigma) and 6 μL of 1.5% type II collagenase solutions, respectively, were injected into the right knee joint, the breadth of both the right and left knee joints was measured daily with a slide caliper (Mitutoyo Corp., Japan) for 7 days after injection, and the difference between the right and left knee joints was calculated. This difference represented the swelling of knee joints, and the AUC was compared between the solvent control and CNP groups by the Student's t-test (SAS ver. 6.12).

[6] = system: adjuvant arthritis rat model; assay: Effect of CNPs on adjuvant arthritis rat model; assay type: in vivo; details: CNP-22 60 ng/day; for arthritis score of the limb ends vs solvent control: osmotic pump subcutaneous; for body weight vs solvent control: days 7 and 10 from antigen sensitization
[7] = system: collagen arthritis rat model; assay: Effect of CNPs on collagen arthritis rat model; assay type: in vivo; details: CNP-22 6 μg/day, days 21, 24 and 28 from antigen sensitization
Description: An osmotic pump (2004 model, Durect) containing the solutions below was transplanted subcutaneously in the back of a 10-week-old female DA/Slc strain rat (Japan SLC, Inc., Japan). • Solvent: Distilled water containing 5% dextrose (Junsei Chemical Co., Ltd., Japan), 10% mannose (Nacalai Tesque Inc., Japan) and 5 mmol/L hydrochloric acid (Wako Pure Chemical Industries, Japan). • 1 mg/mL solution (6 μg/day) of CNP-22 (Calbiochem Novabiochem).
Immediately after transplantation, bovine type II collagen (Collagen Technology Training Co., Japan) was dissolved in 0.1 mol/L aqueous acetic acid so as to make 1.5 mg/mL and suspended in an equal volume of Freund Incomplete Adjuvant (DIFCO LABORATORIES), and 400 μL of the suspension was inoculated into the skin on the back of a rat. Changes in body weight were also measured on a daily basis. In addition, changes in body weight were also measured in a normal group receiving neither pump transplantation nor inoculation.

[8] = CNP-22 60 ng/day continuous subcutaneous
[9] = CNP-22 600 ng/day continuous subcutaneous

Compound | inhibitory effect on the enhancement of PGE2 production [1] | effect on LPS-increased blood TXB2 level [2] | synovial cell growth, granulation and inflammatory cell infiltration in the synovial membrane (histopathology) ([3]; CNP group vs solvent control, collagenase-induced) | degeneration of the articular cartilage ([3]; CNP group, osmotic pump infusion) | AUC of knee joint swelling (difference between right and left knee joint breadth) vs solvent control ([3]; CNP-22 60 ng/day continuous subcutaneous (osmotic pump)) | swelling of the right knee joint vs solvent control [3, 8] | AUC of knee joint swelling (difference between right and left knee joint breadth) vs solvent control ([3]; CNP-22 600 ng/day continuous subcutaneous (osmotic pump)) | swelling of the right knee joint vs solvent control [3, 9] | AUC of knee joint swelling vs solvent control [4, 8] | AUC of knee joint swelling vs solvent control [4, 9] | swelling of knee joints (AUC) vs solvent control ([5]; CNP-22 6 ng/day continuous subcutaneous alone) | arthritis score of the limb ends vs solvent control [6] | arthritis score of the limb ends vs solvent control ([6]; listed as CNP) | body weight vs solvent control [6] | body weight vs solvent control ([6]; listed as CNP) | body weight (body weight loss) vs solvent control [7] | body weight (body weight loss) vs solvent control ([7]; listed as CNP) | swelling of knee joints (AUC) vs solvent control ([5]; indomethacin 1 mg/kg oral once a day for 4 days, alone)
ANP: atrial sodium peptide, a natriuretic peptide acting via NPR-A (SLRRSSCFGGRMDRIGAQSGLGCNSFRY; ends and bridges not checked; cysteine pairing not given here; UniProt P01160 124-151, looked up) [reference compound] | up to 70% | inhibitory effect |  |  |  |  |  |  |  |  |  |  |  |  |  |  |  | 
Gly Leu Ser Lys Gly Cys Phe Gly Leu Lys Leu Asp Arg Ile Gly Ser Met Ser Gly Leu Gly Cys (GLSKGCFGLKLDRIGSMSGLGC; disulfide 6-22; listed as Homo sapiens) [CNP-22, CNP-22 (Calbiochem Novabiochem) used in the tests] | up to 20% |  | remarkably reduced | significantly reduced | significantly lower | significantly inhibited | significantly lower | significantly inhibited | significantly lower; also recorded: significantly inhibited | significantly lower; also recorded: significantly inhibited | significantly inhibited | lower | somewhat lower | significantly heavy | increased significantly | significantly heavy | significantly smaller | 
COc1ccc2c(c1)c(CC(=O)O)c(C)n2C(=O)c1ccc(Cl)cc1 [indomethacin] |  |  |  |  |  |  |  |  |  |  |  |  |  |  |  |  |  | not inhibitory; also recorded: did not

From patent publication US8658373B2, “Method of screening for an agent for treating arthritis and promoting growth of articular chondrocytes” (Kazuwa Nakao, priority 2004, dated 2014)
